The values below come from US20090136468A1, “PERI-OPERATIVE COMPOSITION COMPRISING LACTOBACILLUS RHAMNOSUS” (N.V. NUTRICIA, priority 2004, published 2009).

The test system of experiment [1] is 131 strains of Lactobacillus rhamnosus. Put plainly: Broth micro dilution test, MIC distribution. Type of experiment: cell-based. The note with it: 131 L. rhamnosus strains, LSM broth, 37° C. As to the method:
(§1) The inocula of 131 strains of Lactobacillus rhamnosus species are prepared by suspending several freshly cultivated single colonies in a tube with 5 ml of saline up to an optical density of McFarland standard No. 0.5. The corresponding colonies are picked up from MRS (de Man, Rogosa, Sharpe) agar plates on which the strains grew for 48 h at 37° C. and at 5% CO2 atmosphere. Subsequently, this suspension is diluted 1:10 by transferring 4 ml of the McFarland No. 0.5 suspension into a suitable inoculum container with 36 ml of saline and subsequent careful mixing. The MIC microtiter test plates (95 wels with different concentrations of the test antibiotics and one wel for the growth control without any antibiotic) were prepared before. Nutrient medium: LSM (lactobacilli susceptibility test medium) broth consisting of 90% Iso-sensitest broth plus 10% MRS broth (pH 6.7). The inoculations of the pre-made MIC test plates are performed by a multipoint inoculator (final inoculum of these LAB in the microtiter plate: about 10^5 bacteria ml^−1). The plates are subsequently incubated in ambient air or in a 5% CO2 atmosphere at 37° C. for 24 (−48) h. Then the MICs are read as the lowest concentration in the increasing concentration row of the corresponding antibiotic in which no growth of the test organism was observed. The control attempt (without antibiotic) of the corresponding strain tested has to show sufficient growth.

In another experiment the test system is L. rhamnosus LMG P-22799. Put plainly: MIC by serial dilution of antibiotics in MRS broth. The note with it: 24 hours at 37° C. Type of experiment: cell-based, Lactobacillus rhamnosus. As to the method: (§2) The Minimal inhibitory concentration (MIC) was determined by serial dilution of the tested antibiotics in MRS broth (Oxoid) and inoculate the broth with the probiotic strain to be tested.
(§3) Strains of Lactobacilli were cultured for 24 hours in MRS-broth at 37° C. and under aerobic conditions. A dilution series of the 24 hours-culture in MRS-broth was prepared (dilution factor 10, from 10^−1 to 1^−10). The dilution series were cultured overnight (i.e. 16 h) at 37° C. under aerobic conditions. The highest dilution in which still growth was observed was selected to inoculate a 96-wells plate. The culture was centrifuge for 10 min at 3800 rpm and 4° C. and resuspended in the same volume of PBS (4° C.). The Lactobacilli were counted under a microscope and the solution was diluted in cold PBS to obtain a concentration of 1*10^8 cells/ml.
(§4) Wells of a 96-wells plate were filled with MRS broth and with antibiotics in varying dilution to a total volume of 95 μl. As a control, no antibiotics were added. The following final dilutions of antibiotics were tested:
(§5) bacitracin, colistin, nystatin, polymixin B, vancomycin: 1000, 500, 250, 125, 62.5 ug/ml erythromycin, kanamycin, neomycm: 100, 50, 25, 12.5, 6.25 ug/ml ampicillin, chloramphenicol, lincomycin, penicillin, streptomycin, tetracyclin: 10, 5, 2.5, 1.25, 0.625 ug/ml
(§6) The plates were incubated for 24 hours at 37° C. in a SpectaMAX plate reader (shaking every 10 minutes for 20 seconds) and the optical density was determined at 600 nm.

Experiment [2] deals with L. rhamnosus GG (ATCC 53103). Put plainly: MIC by serial dilution of antibiotics in MRS broth. The following applies: 24 hours at 37° C. The experiment is classed as cell-based, Lactobacillus rhamnosus. As to the method: as §2, §3, §4, §5, §6
Another experiment relates to Lb. rhamnosus GG. Description: Broth micro dilution test, MIC. The experiment is classed as cell-based, Lactobacillus rhamnosus. The note with it: Lacticaseibacillus rhamnosus, unit from Table 6, read-out: MIC against Lb. rhamnosus GG. As for the experimental part:
as §1
(§7) In a large study comprising 131 different Lb. rhamosus strains the sensitivity for antibiotics was tested. In table 6 the number of strains falling within a certain dilution factor are shown. Clearly there are large differences in antibiotic sensitivity within the Lb. rhamnosus group. The more sensitive to these antibiotics, the better and together with the other parameters, such as the inhibition of adhesion of pathogens to intestinal epithelial cells is used to select the most appropriate Lb. rhamnosus. […]

Experiment [3] concerns our preferred Lb. rhamnosus (LMG P-22799). Put plainly: Broth micro dilution test, MIC. Type of experiment: cell-based, Lactobacillus rhamnosus. As to the method:
as §1, §7

Bounds are passed on as bounds.

In the case of `[H]/N=C(/N)N[C@H]1[C@H](O)[C@@H](O)[C@H](O[C@@H]2O[C@@H](C)[C@](O)(C=O)[C@H]2O[C@@H]2O[C@@H](CO)[C@H](O)[C@@H](O)[C@@H]2NC)[C@@H](N/C(N)=N\[H])[C@@H]1O` [STR], in experiment [1], the “Number of strains with a MIC of 2.0 μg/ml” value (“Number … of 2.0 μg/ml” for short) stood at 37, the “Number of strains with a MIC of 4.0 μg/ml” value (“Number … of 4.0 μg/ml” for short) was found to be 52 and the “Number of strains with a MIC of 8.0 μg/ml” value is listed as 21.
Turning to `O=C(N[C@H](CO)[C@H](O)c1ccc([N+](=O)[O-])cc1)C(Cl)Cl` [Chloramphenicol, chloramphenicol], the “Antibiotic sensitivity (expressed as MIC) of L. rhamnosus LMG P-22799” value with L. rhamnosus LMG P-22799 came out at 5 µg/mL. The “Antibiotic sensitivity (expressed as MIC) of L. rhamnosus GG (ATTC 53103)” value (from here on “Antibiotic sensitivity … (ATTC 53103)”) in experiment [2] is more than 10 µg/mL.
Consider penicillin, for which, in experiment [1], the “Number of strains with a MIC of 0.125 μg/ml” value is given as 9, the “Number of strains with a MIC of 0.25 μg/ml” value was 76, the “Number of strains with a MIC of 0.5 μg/ml” value (shortened to “Number … of 0.5 μg/ml”) is listed as 28 and the “Number of strains with a MIC of 1.0 μg/ml” value (shortened to “Number … of 1.0 μg/ml”) is recorded as 11. In experiment [1], the “Number … of 2.0 μg/ml” value worked out at 7.
Take `[H]/N=C(/N)N[C@H]1[C@H](O)[C@@H](O)[C@H](O[C@@H]2O[C@@H](C)[C@](O)(C=O)[C@H]2O[C@@H]2O[C@@H](CO)[C@H](O)[C@@H](O)[C@@H]2NC)[C@@H](N/C(N)=N\[H])[C@@H]1O` [Streptomycin, streptomycin]: in the experiment on L. rhamnosus LMG P-22799, the “Antibiotic sensitivity (expressed as MIC) of L. rhamnosus LMG P-22799” value amounted to 5 µg/mL. Moreover, the “Antibiotic sensitivity … (ATTC 53103)” value in experiment [2] is more than 10 µg/mL.
Consider `CC1(C)S[C@@H]2[C@H](NC(=O)[C@H](N)c3ccccc3)C(=O)N2[C@H]1C(=O)O` [Ampicillin, ampicillin], for which, in the experiment with L. rhamnosus LMG P-22799, the “Antibiotic sensitivity (expressed as MIC) of L. rhamnosus LMG P-22799” value stood at 2.5 µg/mL. In experiment [2], the “Antibiotic sensitivity … (ATTC 53103)” value is more than 10 µg/mL. The minimum inhibitory concentration (MIC) with Lb. rhamnosus GG was not below 1 µg/mL. The “AMP sensitivity ratio LGG/LMG P-22799” value in experiment [3] is listed as 2-4. The MIC in experiment [3] (Lacticaseibacillus rhamnosus, unit from Table 6, read-out: MIC against our preferred Lb. rhamnosus) was not above 0.5 µg/mL. Moreover, in experiment [1], the “Number of strains with a MIC of 0.25 μg/ml” value amounted to 3, the “Number … of 0.5 μg/ml” value is 52, the “Number … of 1.0 μg/ml” value was 62 and the “Number … of 2.0 μg/ml” value was 12. Further, the “Number … of 4.0 μg/ml” value in experiment [1] was found to be 2.
As for `CCC[C@@H]1C[C@@H](C(=O)N[C@@H]([C@H]2O[C@H](SC)[C@H](O)[C@@H](O)[C@H]2O)[C@@H](C)O)N(C)C1` [Lincomycin, lincomycin], the “Antibiotic sensitivity (expressed as MIC) of L. rhamnosus LMG P-22799” value in the experiment on L. rhamnosus LMG P-22799 was determined as 5 µg/mL. For the same compound, in experiment [2], the “Antibiotic sensitivity … (ATTC 53103)” value is 10 µg/mL.
As for `CN(C)[C@@H]1C(=O)C(C(N)=O)=C(O)[C@@]2(O)C(=O)C3=C(O)c4c(O)cccc4[C@@](C)(O)[C@H]3C[C@@H]12` [Tetracyclin, tetracyclin], the “Antibiotic sensitivity (expressed as MIC) of L. rhamnosus LMG P-22799” value with L. rhamnosus LMG P-22799 turned out to be 2.5 µg/mL. In addition, the “Antibiotic sensitivity … (ATTC 53103)” value in experiment [2] was 10 µg/mL.
`O=C(N[C@H](CO)[C@H](O)c1ccc([N+](=O)[O-])cc1)C(Cl)Cl` [CMP]: in experiment [1], the “Number … of 0.5 μg/ml” value is 1, the “Number … of 1.0 μg/ml” value amounted to 10, the “Number … of 2.0 μg/ml” value is recorded as 88 and the “Number … of 4.0 μg/ml” value stood at 31. For the same compound, the “Number of strains with a MIC of 8.0 μg/ml” value in experiment [1] amounted to 1.
With `CC[C@H]1OC(=O)[C@H](C)[C@@H](O[C@H]2C[C@@](C)(OC)[C@@H](O)[C@H](C)O2)[C@H](C)[C@@H](O[C@@H]2O[C@H](C)C[C@H](N(C)C)[C@H]2O)[C@](C)(O)C[C@@H](C)C(=O)[C@H](C)[C@@H](O)[C@]1(C)O` [Erythromycin, erythromycin], the “Antibiotic sensitivity (expressed as MIC) of L. rhamnosus LMG P-22799” value in the experiment on L. rhamnosus LMG P-22799 amounted to 50 µg/mL. For the same compound, the “Antibiotic sensitivity … (ATTC 53103)” value in experiment [2] was more than 100 µg/mL.
